According to EP0672658B1, “Antithrombotic agents” (priority 1994, dated 1995):
Where a name gives a salt, the structure may show the parent alone.

What was measured:
Human Thrombin = Human Thrombin (Homo sapiens, UniProt P00734); test: biochemical; settings: read-out: Kass Human Thrombin (converted)
factor Xa = factor Xa (Homo sapiens, UniProt P00742); test: biochemical; settings: read-out: Kass Xa (converted)
Description: (§1) By substantially following the procedures described above for human thrombin, and using other human blood coagulation system serine proteases and proteases of the fibrinolytic system with the appropriate chromogenic substrates, identified below, selectivity of the compounds of the present invention with respect to the coagulation factor serine proteases and with respect to the fibrinolytic system serine proteases are evaluated as well as their substantial lack of interference with serine proteases of the fibrinolytic system. Thrombin inhibitors preferably should spare fibrinolysis induced by urokinase, tissue plasminogen activator (t-PA) and streptokinase. This would be important to the therapeutic use of such agents as an adjunct to streptokinase, t-PA or urokinase thrombolytic therapy and to the use of such agents as an endogenous fibrinolysis-sparing (with respect to t-PA and urokinase) antithrombotic agent. In addition to the lack of interference with the amidase activity of the fibrinolytic proteases, such fibrinolytic system sparing can be studied by the use of human plasma clots and their lysis by the respective fibrinolytic plasminogen activators.
Human factors X, Xa, IXa, XIa, and XIIa are purchased from Enzyme Research Laboratories, South Bend, Indiana; human urokinase from Leo Pharmaceuticals, Denmark; and recombinant activated Protein C (aPC) is prepared at Eli Lilly and Co. substantially according to U.S. Patent 4,981,952. Chromogenic substrates: N-Benzoyl-Ile-Glu-Gly-Arg-p-nitroanilide (for factor Xa); N-Cbz-D-Arg-Gly-Arg-p-nitroanilide (for factor IXa assay as the factor Xa substrate); Pyroglutamyl-Pro-Arg-p-nitroanilide (for Factor XIa and for aPC); H-D-Pro-Phe-Arg-p-nitroanilide (for factor XIIa); and Pyroglutamyl-Gly-Arg-p-nitroanilide (for urokinase); are purchased from KabiVitrum, Stockholm, Sweden, or from Midwest Biotech, Fishers, Indiana. Bovine trypsin is purchased from Worthington Biochemicals, Freehold, New Jersey, and human plasma kallikrein from Kabi Vitrum, Stockholm, Sweden. Chromogenic substrate H-D-Pro-Phe-Arg-p-nitroanilide for plasma kallikrein is purchased from Kabi Vitrum, Stockholm, Sweden. N-Benzoyl-Phe-Val-Arg-p-nitroanilide, the substrate for human thrombin and for trypsin, is synthesized according to procedures described above for the compounds of the present invention, using known methods of peptide coupling from commercially available reactants or purchased from Midwest Biotech, Fishers, Indiana.

Trypsin = molecular target: T1, Trypsin (Bos taurus, UniProt P00760); test: biochemical; set-up: species or system Bovine; settings: read-out: Kass Trypsin (converted)
T1 sequence (P00760 24-246): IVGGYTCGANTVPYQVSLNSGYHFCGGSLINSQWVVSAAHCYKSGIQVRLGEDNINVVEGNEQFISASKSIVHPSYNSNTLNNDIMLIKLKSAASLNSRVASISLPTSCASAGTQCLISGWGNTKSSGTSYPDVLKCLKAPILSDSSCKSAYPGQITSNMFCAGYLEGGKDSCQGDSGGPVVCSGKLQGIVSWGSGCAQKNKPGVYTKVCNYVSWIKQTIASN
In short: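 Bovine trypsin and human factor Xa amidase activity measured chromogenically, following the human thrombin procedure. Substrates: N-Benzoyl-Ile-Glu-Gly-Arg-p-nitroanilide for factor Xa and N-Benzoyl-Phe-Val-Arg-p-nitroanilide for trypsin. Used for selectivity profiling.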

Plasmin = molecular target: T2, Plasmin (Homo sapiens, UniProt P00747); test: biochemical; settings: read-out: Kass Plasmin (converted)
T2 construct: Human plasmin is purchased; purchased Boehringer Mannheim, Indianapolis, Indiana
Description: as §1
(§2) Human plasmin is purchased from Boehringer Mannheim, Indianapolis, Indiana; nt-PA is purchased as single chain activity reference from American Diagnostica, Greenwich, Connecticut; modified-t-PA6 (mt-PA6) is prepared at Eli Lilly and Company by procedure known in the art (See, Burck, et al., J. Biol. Chem., 265, […] (1990). Plasmin chromogenic substrate H-D-Val-Leu-Lys-p-nitroanilide and tissue plasminogen activator (t-PA) substrate H-D-Ile-Pro-Arg-p-nitroanilide are purchased from Kabi Vitrum, Stockholm, Sweden.

t-PA = t-PA (Homo sapiens, UniProt P00750); test: biochemical; settings: read-out: Kass t-PA (converted)
Description: as §1, §2

human or animal plasma [1] = test: Anticoagulation determination in plasma: thrombin time (TT); format: biochemical; settings: concentration doubling thrombin time
In short: (§3)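 Compounds spiked over a concentration range into citrated human, dog or rat plasma. PT used Thromboplastin-C; APTT used Actin reagent 120 s then 0.02 M CaCl2; TT used bovine thrombin 10 NIH units/mL. Concentration doubling clotting time estimated by linear extrapolation.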

human or animal plasma [2] = test: Anticoagulation determination in plasma: activated partial thromboplastin time (APTT); format: biochemical; settings: concentration doubling activated partial thromboplastin time
In short: as §3

human or animal plasma [3] = test: Anticoagulation determination in plasma: prothrombin time (PT); format: biochemical; settings: concentration doubling prothrombin time
In short: as §3

Sequence of factor Xa (P00742 235-488 limits assumed): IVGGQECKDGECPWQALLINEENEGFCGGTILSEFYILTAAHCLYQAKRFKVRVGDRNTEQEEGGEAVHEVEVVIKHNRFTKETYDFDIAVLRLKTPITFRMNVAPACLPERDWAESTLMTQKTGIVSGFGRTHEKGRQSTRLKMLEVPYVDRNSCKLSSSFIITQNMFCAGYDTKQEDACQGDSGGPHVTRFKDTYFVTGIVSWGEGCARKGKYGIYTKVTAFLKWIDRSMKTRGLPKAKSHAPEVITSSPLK
Sequence of factor Xa (P00742 41-179 partner limits assumed): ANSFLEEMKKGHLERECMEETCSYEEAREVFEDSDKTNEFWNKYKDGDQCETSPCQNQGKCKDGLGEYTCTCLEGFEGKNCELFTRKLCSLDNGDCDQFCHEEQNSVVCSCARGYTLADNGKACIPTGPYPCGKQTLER
T2 sequence (P00747 581-810 limits assumed): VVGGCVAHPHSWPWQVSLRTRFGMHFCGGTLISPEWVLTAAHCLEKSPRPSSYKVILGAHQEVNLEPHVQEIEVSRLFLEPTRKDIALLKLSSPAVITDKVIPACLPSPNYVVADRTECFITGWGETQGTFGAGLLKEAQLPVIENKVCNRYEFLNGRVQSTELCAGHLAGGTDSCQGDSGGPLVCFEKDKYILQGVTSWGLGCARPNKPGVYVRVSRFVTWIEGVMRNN
T2 sequence (P00747 97-580 partner limits assumed): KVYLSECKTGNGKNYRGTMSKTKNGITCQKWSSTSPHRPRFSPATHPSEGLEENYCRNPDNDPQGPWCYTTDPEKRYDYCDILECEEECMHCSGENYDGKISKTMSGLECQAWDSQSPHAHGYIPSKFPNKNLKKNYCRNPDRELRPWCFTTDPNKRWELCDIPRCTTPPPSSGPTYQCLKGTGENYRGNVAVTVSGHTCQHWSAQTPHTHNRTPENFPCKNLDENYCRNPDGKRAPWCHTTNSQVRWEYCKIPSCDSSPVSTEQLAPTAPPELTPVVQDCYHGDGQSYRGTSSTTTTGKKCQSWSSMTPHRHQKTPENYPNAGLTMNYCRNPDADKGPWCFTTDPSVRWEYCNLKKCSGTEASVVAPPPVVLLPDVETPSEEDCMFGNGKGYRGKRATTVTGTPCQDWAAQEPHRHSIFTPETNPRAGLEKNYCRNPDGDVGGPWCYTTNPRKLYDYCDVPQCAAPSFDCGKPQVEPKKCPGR
Sequence of t-PA (P00750 36-562): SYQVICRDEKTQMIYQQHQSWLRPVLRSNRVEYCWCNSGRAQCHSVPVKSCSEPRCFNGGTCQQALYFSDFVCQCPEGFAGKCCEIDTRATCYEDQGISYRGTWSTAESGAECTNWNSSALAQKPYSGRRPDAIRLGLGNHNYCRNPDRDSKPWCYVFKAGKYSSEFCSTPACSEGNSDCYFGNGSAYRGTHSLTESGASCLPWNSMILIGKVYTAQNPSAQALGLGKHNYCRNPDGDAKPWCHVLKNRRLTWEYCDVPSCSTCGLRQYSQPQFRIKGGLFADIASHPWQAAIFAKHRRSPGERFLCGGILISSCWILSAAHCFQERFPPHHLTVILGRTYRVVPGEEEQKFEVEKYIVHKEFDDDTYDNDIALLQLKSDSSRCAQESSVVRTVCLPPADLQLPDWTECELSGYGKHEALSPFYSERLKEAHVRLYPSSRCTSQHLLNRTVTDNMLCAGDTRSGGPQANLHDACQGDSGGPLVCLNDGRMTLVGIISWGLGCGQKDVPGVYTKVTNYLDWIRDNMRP

Row | Structure (SMILES) | Kd (Human Thrombin) [µM] | Kd (factor Xa) [µM] | Kd (Trypsin) [µM] | Kd (Plasmin) [µM] | Kd (t-PA) [µM] | Human Plasma Anticoagulation 2x Clotting time (ng/mL) TT (human or animal plasma [1]) | Human Plasma Anticoagulation 2x Clotting time (ng/mL) APTT (human or animal plasma [2]) | Human Plasma Anticoagulation 2x Clotting time (ng/mL) PT (human or animal plasma [3])
1 | O=C(O)CN[C@H](CC1CCCCC1)C(=O)N1CCC[C@H]1C(=O)NCCCC1CCNCC1 [Example 55, HO2CCH2-D-Cha-Pro-4-NHCH2CH2CH2-piperidine·HCl] | 100 | > 1000 | 100 | > 1000 | > 1000 | 55,800 ng/mL | >91,000 ng/mL | >91,000 ng/mL
2 | CCS(=O)(=O)N[C@H](Cc1ccccc1)C(=O)N1CCC[C@H]1C(=O)NCCc1ccc(NC(=N)N)cc1 [Example 35, EtSO2-D-Phe-Pro-p-NHCH2CH2C6H4CNH(NH)NH2·HCl] | 11.1 | > 1000 | 25 | > 1000 | > 1000 | 4,500 ng/mL | 50,400 ng/mL | 78,400 ng/mL
3 | O=C(O)CN[C@H](CC1CCCCC1)C(=O)N1CCC[C@H]1C(=O)NCC1=CCNCC1 [Example 58, HO2CCH2-D-Cha-Pro-4-NHCH2-3,4-dehydro-piperidine·HCl] | 1.67 | > 1000 | 2.5 | > 1000 | > 1000 | 710 ng/mL | 14,300 ng/mL | 11,400 ng/mL
4 | CCS(=O)(=O)N[C@H](Cc1ccccc1)C(=O)N1CCC[C@H]1C(=O)NCc1ccc(NC(=N)N)cc1 [Example 34, EtSO2-D-Phe-Pro-p-NHCH2C6H4NHC(NH)NH2·HCl] | 1.54 | > 1000 | 2.04 | 100 | 100 | 530 ng/mL | 4,900 ng/mL | 5,500 ng/mL
5 | N=C(N)N1CCC(CNC(=O)[C@@H]2CCCN2C(=O)[C@@H](CC2CCCCC2)NCC(=O)O)CC1 [Example 56, HO2CCH2-D-Cha-Pro-4-NHCH2-1-amidinopiperidine·HCl] | 0.00204 | 5 | 0.278 | 100 | > 1000 | 5 ng/mL | 160 ng/mL | 200 ng/mL
6 | N=C(N)c1ccc(CCCNC(=O)[C@@H]2CCCN2C(=O)[C@@H]2NCC[C@@H]3CCCC[C@@H]32)cc1 [Example 32, 1-Piq-Pro-p-NHCH2CH2CH2-C6H4C(=NH)NH2·HCl] | 7.69 | 33.3 | 25 | > 1000 | 100 | 3,100 ng/mL | 28,500 ng/mL | 47,800 ng/mL
7 | CCS(=O)(=O)N[C@H](Cc1ccccc1)C(=O)N1CCC[C@H]1C(=O)NCc1cccc(NC(=N)N)c1 [Example 36, EtSO2-D-Phe-Pro-m-NHCH2C6H4NHC(NH)NH2·HCl] | 16.7 | > 1000 | 100 | > 1000 | > 1000 | 7,700 ng/mL | >91,000 ng/mL | >91,000 ng/mL
8 | NC[C@H]1CC[C@H](CNC(=O)[C@@H]2CCCN2C(=O)[C@H](N)Cc2ccccc2)CC1 [Example 12, D-Phe-Pro-NHCH2-trans-4-(aminomethyl)cyclohexane·HCl] | 2.27 | 23800 | 455 | 1150 | 23800 | 1,700 ng/mL |  | 
9 | N=C(N)NCCCNC(=O)[C@@H]1CCCN1C(=O)[C@H](N)Cc1ccccc1 [Example 7, D-Phe-Pro-NH(CH2)3NHC(NH)NH2·HCl] | 0.526 | 244 | 123 | 4550 | 270 | 490 ng/mL |  | 
